The text below walks through data of patent US20240285586A1, “METHODS FOR TREATING BACTERIAL CELL POPULATIONS” (THE HONG KONG POLYTECHNIC UNIVERSITY, priority 2021, published 2024).

Data set [1] concerns E. coli BW25113 wild type. The data set can be described thus: Antibiotic accumulation assay (BOCILLIN, flow cytometry), wild type. Format: cell-based, Escherichia coli. Particulars: 24 hrs starvation, BOCILLIN 10 μg/mL. The method, then:
(§1) Antibiotic accumulation assay. The overnight bacteria culture was diluted 100-fold in LB broth and cultivated for about 1 hr until the OD600 value reached 0.2 (exponential phase). Aliquots of this exponential phase culture were washed and re-suspended in saline, cultured at 37° C. under constant shaking (250 rpm) for 24 hrs, followed by addition of CCCP (1 μM). After 5 mins, BOCILLIN™ FL Penicillin (10 μg/mL) was added and incubated at 37° C. with shaking at 250 rpm for 1 hr. Upon washing twice with PBS, fluorescence signal was measured by flow cytometry CytoFLEX (Beckman). Microorganisms were identified by FSC (forward scatter) and SSC (side scatter) parameters. Fluorescence intensity was measured at 488-nm excitation, 525-nm emission.

The test system of the next data set is E. coli ΔpspA. The data set can be described thus: Antibiotic accumulation assay (BOCILLIN, flow cytometry), ΔpspA. The note with it: 24 hrs starvation, no CCCP. Format: cell-based, Escherichia coli. The method, then: as §1
In another data set the test system is S. typhimurium. The data set can be described thus: Starvation-induced tolerance assay, S. typhimurium. The class given is cell-based. The method, then:
(§2) Tolerance assay. […] Standard serial dilution and plating on LB agar was performed before and after ampicillin treatment for 4 hrs, 2 days, 4 days and 6 days to determine the fraction of the test population that survived at different time points during the course of treatment.
(§3) Standard serial dilution and plating on LB agar was performed on samples collected every 24 hrs to assess changes in the size of the sub-population that survived during the treatment process.
(§4) Upon reaching the exponential phase, bacteria were washed and re-suspended in saline (0.9% NaCl), and then incubated at 37° C. under constant shaking (250 rpm/min) for 24 hrs. […] Standard serial dilution and plating on LB agar were performed before and after ampicillin treatment for 4 hrs, 1 day, 2 days and 4 days to determine the fraction of the test population that survived at different time points during the course of treatment.

The next data set deals with S. aureus. The data set can be described thus: Starvation-induced tolerance assay, S. aureus. The class given is cell-based, Staphylococcus aureus. The method, then: as §2, §3, §4
The next data set deals with K. pneumoniae. As to the kind of experiment: Starvation-induced tolerance assay, K. pneumoniae. Format: cell-based, Klebsiella pneumoniae. The method, then: as §2, §3, §4
The conditions of data set [2]: general statement; cited from earlier work.
The subject of a further data set is E. coli BW25113. The data set can be described thus: Starvation-induced tolerance assay, wild type E. coli. Format: cell-based, Escherichia coli. The note with it: for size of the E. coli population: within 24 hrs. The method, then: as §2, §3, §4
A further data set relates to Gram negative strains. As to the kind of experiment: Minimal inhibitory concentration, Gram negative strains. Particulars: all Gram negative test strains. Format: cell-based. From the text: Determination of Minimal Inhibitory Concentrations (MICs).
Another data set deals with A. baumannii. The data set can be described thus: Starvation-induced tolerance assay, A. baumannii. The class given is cell-based, Acinetobacter baumannii. The method, then:
as §2, §3, §4

For another data set, the system named is E. coli wild type strain. As to the kind of experiment: Assessment of efflux activity (Nile Red). Format: cell-based, Escherichia coli. The note with it: CCCP 100 μM, within 30 mins, increased from ~6500 RFU. The method, then: Assessment of efflux activity. A10-mL portion of bacterial population which had been subjected to 24 hrs starvation was centrifuged at 6000×g for 5 mins at room temperature. The pellet was re-suspended in PBS containing 1 mM MgCl2(PPB) and adjusted to OD600 0.2. Nile Red which fluoresces only weakly in aqueous solutions but becomes strongly fluorescent in nonpolar environments was added to produce a final concentration of 5 μM followed by incubation at 37° C. for 30 mins, with 250 rpm shaking. CCCP was then added to produce a final concentration of 100 μM; fluorescence was measured for a period of 30 mins by a Clariostar Microplate Reader at an excitation wavelength of 544±10 nm and an emission wavelength of 650±10 nm.

Another data set relates to S. typhimurium PY1. The data set can be described thus: Mouse peritonitis infection (tolerance sepsis) model. Format: in vivo. The method, then:
NIH male mice of about six-weeks-old with body weight of ˜20 g were used, 6 mice per group. The animals were allowed to acclimate to the housing facility for 5 days. The mice were made neutropenic by administering 150 mg/kg cyclophosphamide 3 days and 1 day before infection. Different amounts of S. typhimurium strain PY01 (2.8×10^5 CFU, 7.6×10^5 CFU or 1.5×10^6 CFU) were inoculated into the animals via intraperitoneal injection. The mice were subjected to ceftazidime (20 mg/kg), econazole (20 mg/kg) or ceftazidime combining econazole treatment (i.p.) 24 h after inoculation, at 12 hrs intervals for 72 hrs randomly. The mortality rate of the test mice was recorded every 12 hrs. After 72 h of treatment, live mice were euthanized and subjected to peritoneal washes which involved injection of 2 mL of saline into the intraperitoneal space, followed by abdominal massage. The abdomen was then cut open and 200 μL of peritoneal fluid were collected and serially diluted in saline. A 100 μL portion of each dilution was spread on LB plates, followed by incubation overnight at 37° C. Colonies were counted to determine the bacterial load in the test samples, which were expressed as CFU/ml. Statistical analysis and ethic approval were the same as described above.

In the next data set the test system is E. coli J53 (mcr-1). As to the kind of experiment: MIC of colistin in presence and absence of compound, broth dilution. Format: cell-based, Escherichia coli. The note with it: antibiotic resistant E. coli (FIG. 20).
Another data set has as its system E. coli. As to the kind of experiment: Membrane potential assay DiSC3(5), E. coli. The class given is cell-based, Escherichia coli. The note with it: valinomycin 1 μM, positive control, exponential phase.
Data set [3] deals with E. coli BW25113 and its ΔpspA derivative. As to the kind of experiment: Membrane permeability assay (SYTOX Green). The class given is cell-based, Escherichia coli. The note with it: colistin, positive control; similar in wild type and ΔpspA. The method, then:
Membrane permeability assay. The membrane permeability or integrity of the test organisms was measured using SYTOX Green (ThermoFisher), which can enter the cell through damaged cell membrane and bind to nucleic acid, generating fluorescence signal. E. coli BW25113 and its ΔpspA derivative at a concentration of OD600 of 0.2, which had been subjected to 24 hrs starvation, were collected by centrifugation (6000×g, 2 mins), washed twice and re-suspended in saline. SYTOX Green was then added to give a final concentration of 1 μM, followed by incubation for 30 min in the dark at room temperature. The relative fluorescence signal in the wild type and ΔpspA strain was measured by a Cary Eclipse Fluorescence Spectrophotometer (Agilent), with an excitation wavelength of 488±10 nm and an emission wavelength of 523±10 nm.

Setting [4] is: CCCP 100 μM, absence of ampicillin.
The mark [5] stands for this setting: low concentration of CCCP + 10×MIC ampicillin.

On to `Cc1cc(C)n2c1C=C1C=CC(CCC(=O)Nc3ccc(OCC(=O)N[C@@H]4C(=O)N5[C@@H]4SC(C)(C)[C@@H]5C(=O)[O-])cc3)=[N+]1[B-]2(F)F.[Na+]` [BOCILLIN], for which the “cells exhibiting high BOCILLIN intensity (>10^3 RFU)” value in data set [1] (absence of CCCP) was 10.45%. Also, the “cells that exhibited high BOCILLIN level” value in the data set with E. coli ΔpspA stood at 18.52%.

Consider `N#CC(C#N)=NNc1cccc(Cl)c1` [CCCP, carbonyl cyanide-m-chlorophenylhydrazone], for which the “eradication of tolerant cells” value in the data set with S. typhimurium (setting [4]), in the data set with S. aureus (setting [4]), in the data set with K. pneumoniae (setting [4]) and in the data set on A. baumannii (setting [4]) was “could eradicate tolerant bacteria cells” each time. Besides, the “effect on phenotypic ampicillin tolerance” value in the data set with S. typhimurium (setting [5]), with S. aureus (setting [5]), with K. pneumoniae (setting [5]) and in the data set on A. baumannii (setting [5]) was “sufficient to suppress or even completely abolish phenotypic ampicillin tolerance” in each case. Moreover, in data set [1] (CCCP (1 μM) treatment), the “cells exhibiting high BOCILLIN intensity (>10^3 RFU)” value is 97.86%. Further, the “toxicity or safety in human” value in data set [2] is “toxic to human”. The population size with E. coli BW25113 (CCCP 1 μM + ampicillin, […], after 24 hrs starvation) was roughly 80 cells/mL. Besides, the tolerance to ciprofloxacin entry in the data set on E. coli BW25113 (CCCP 1 μM + ciprofloxacin 0.5 μg/mL) is “not affected”. Further, the “phenotypic tolerance to gentamicin upon PMF dissipation” value in the data set on E. coli BW25113 (CCCP 1 μM + gentamicin 10 μg/mL) is listed as “cannot be maintained”. The “size of the surviving population” value in the data set on E. coli BW25113 (CCCP 1 μM alone, […], after 24 hrs starvation) is given as “remained unchanged”. For the same molecule, the “size of the E. coli population” value in the data set on E. coli BW25113 (CCCP 100 μM + ampicillin) is ~2×10^4 cells/mL; in the data set with E. coli BW25113 (CCCP 100 μM alone, from ~2.5×10^7 cells/mL), ~5×10^5 cells/mL. Moreover, the “time to eradication of the entire antibiotic tolerant population” value with E. coli BW25113 (CCCP 100 μM with ampicillin) and in the data set on E. coli BW25113 (CCCP 100 μM without ampicillin) was no more than 48 h in each case. Moreover, in the data set on E. coli BW25113 (CCCP (100 μM) + ampicillin), the “killing effect compared with CCCP alone” value is listed as “significantly stronger”. Further, the “entire tolerant cell population” value in the data set on E. coli BW25113 (CCCP (concentration not stated) and ampicillin, six days) is listed as roughly 50 cells/mL. Further, in the data set on E. coli BW25113 (CCCP alone (100 μM)), the “killing of bacterial tolerant cells” value is “kill bacterial tolerant cells”. The same molecule registered an MIC against Gram negative strains greater than 160 µM. Also, the “Nile Red fluorescence intensity” value in the data set with E. coli wild type strain is roughly 10000 RFU.

`CC(C)(O/N=C(\C(=O)N[C@@H]1C(=O)N2C(C(=O)[O-])=C(C[n+]3ccccc3)CS[C@H]12)c1csc(N)n1)C(=O)O` [ceftazidime]: the “size of the tolerant population” value in the data set with S. typhimurium (ceftazidime alone (100 μg/ml), 96 hrs (FIG. 16F)) is listed as ~1.4×10^7 CFU/mL. For the same molecule, the infected mice rescued in the data set with S. typhimurium PY1 (ceftazidime alone 20 mg/kg, 1.5×10^6 CFU) worked out at 10%. Besides, the “protection of the test animals from death” value in the data set with S. typhimurium PY1 (ceftazidime alone 20 mg/kg, inoculation of 7.6×10^5 CFU) was “could protect the test animals from being killed”. In addition, the “rate of eradication of PY1 tolerant sub-population compared with the econazole and ceftazidime combination” value in the data set with S. typhimurium PY1 (ceftazidime only 20 mg/kg, lower inoculum (FIG. 19F), P=0.0004) is on record as “significantly slower”.

As for `C=CCOC(Cn1ccnc1)c1ccc(Cl)cc1Cl` (stereo not drawn) [enilconazole], the “effect of co-administration with colistin” value (shortened to “effect of co-administration”) with E. coli J53 (mcr-1) was “bactericidal synergistic effect”.

For `N#C/C(=C1/SC[C@@H](c2ccc(Cl)cc2Cl)S1)n1ccnc1` [lulionazole], the “effect of co-administration” value with E. coli J53 (mcr-1) is “bactericidal synergistic effect”.

Turning to `Clc1ccc(COC(Cn2ccnc2)c2ccc(Cl)cc2Cl)c(Cl)c1` (stereo not drawn) [miconazole], in the data set on E. coli J53 (mcr-1), the “effect of co-administration” value is recorded as “bactericidal synergistic effect”.

On to `Clc1ccc(C(Cn2ccnc2)OCc2csc3c(Cl)cccc23)c(Cl)c1` (stereo not drawn) [sertaconazole], for which the “effect of co-administration” value in the data set with E. coli J53 (mcr-1) is listed as “bactericidal synergistic effect”.

With `Clc1ccc(C(Cn2ccnc2)OCc2ccsc2Cl)c(Cl)c1` (stereo not drawn) [tioonazole], the “effect of co-administration” value with E. coli J53 (mcr-1) is on record as “bactericidal synergistic effect”.

With `CC(C)[C@@H]1NC(=O)[C@H](C)OC(=O)[C@@H](C(C)C)NC(=O)[C@@H](C(C)C)OC(=O)[C@H](C(C)C)NC(=O)[C@H](C)OC(=O)[C@@H](C(C)C)NC(=O)[C@@H](C(C)C)OC(=O)[C@H](C(C)C)NC(=O)[C@H](C)OC(=O)[C@@H](C(C)C)NC(=O)[C@@H](C(C)C)OC1=O` [valinomycin], the “effect on membrane potential (DiSC3(5) fluorescence)” value in the data set on E. coli is recorded as “caused dissipation of membrane potential”.

On to colistin, for which the “effect on membrane permeability (SYTOX Green)” value in [3] is “cause membrane damage and an eventual increase in membrane permeability”.
